Test results taken from patent publication US6579705B2, “Process for preparing non-proteinogenic L-amino acids” (Consortium fur Elektrochemische Industrie GmbH, priority 2001, dated 2003).

Columns and labels:
[1] = molecular target: T1, O-acetyl-L-serine sulfhydrylase CysK (Escherichia coli, UniProt P0ABK5); assay type: biochemical; conditions: pH 7
T1 construct: StrepTagII (WSHPQFEK) (C); made in house; host or cells: E. coli BLR21(DE3) carrying pLE4 (T7 promoter, pRSET5a)
Method: (§1) In order to use the O-acetyl-L-serine sulfhydrylases to prepare non-proteinogenic amino acids, other nucleophilic compounds were used in the reaction in place of sulfide or thiosulfate. In order to detect them, a precolumn derivatization for amino acids was carried out using ortho-phthaldialdehyde. Using this method, it was possible to carry out a broad screening for suitable nucleophilic substrates.
(§2) The mixtures contained 4 mM O-acetyl-L-serine (added from a 200 mM stock solution in 500 mM Nasuccinate buffer, pH 5.5), 20 mM nucleophilic compound, 100 mM K phosphate buffer, pH 7.0, and 5 μg of purified enzyme/ml. The reaction was stopped with 1/100th the volume of acetic acid (96% v/v) and analyzed by HPLC using a HP aminoquant column (200 mm×2.1 mm) in accordance with the manufacturer's instructions supplied by Hewlett Packard, Waldbronn, Germany.

[2] = molecular target: T2, O-acetyl-L-serine sulfhydrylase CysM (Escherichia coli, UniProt P16703); assay type: biochemical; conditions: pH 7
T2 construct: StrepTagII (WSHPQFEK) (C); made in house; host or cells: E. coli DH5alpha carrying pFL145 (tet promoter, pASK-IBA3)
Method: as §1, §2

[3] = cited from earlier work
[4] = assay type: biochemical, Escherichia coli; conditions: 10 mM O-acetyl-serine, pH 7.0, 37° C., 5 μg purified enzyme/ml; for specific activity Acys (formation of cysteine using sulfide): 10 mM sodium sulfide
Method: The activity of O-acetyl-L-serine sulfhydrylases is measured by detecting the “natural” reaction product L-cysteine (Cys) or alternatively, in the case of CysM, also by detecting the reaction product as S-sulfo-L-cysteine (S-Cys). Both products can be detected very specifically and very sensitively using the test described by Gaitonde (1967, Biochem. J. 104: 627-633).
A typical test mixture contained 10 mM O-acetyl-serine (added from a 200 mM stock solution in 500 mM sodium succinate buffer, pH 5.5), 10 mM sodium sulfide or sodium thiosulfate, 100 mM potassium phosphate buffer, pH 7.0, and 5 μg of purified enzyme/ml, and is incubated at 37° C. The specific activity, A, is given in units/mg of protein, i.e. in μmol of product×min^−1×mg^−1 of protein. Acys denotes the specific activity of the formation of cysteine using sulfide. AS-Cys denotes the specific activity of the formation of S-sulfocysteine using thiosulfate. The specific activities using the proteins isolated in example 2 were: […]

T1 sequence (P0ABK5 whole entry, looked up): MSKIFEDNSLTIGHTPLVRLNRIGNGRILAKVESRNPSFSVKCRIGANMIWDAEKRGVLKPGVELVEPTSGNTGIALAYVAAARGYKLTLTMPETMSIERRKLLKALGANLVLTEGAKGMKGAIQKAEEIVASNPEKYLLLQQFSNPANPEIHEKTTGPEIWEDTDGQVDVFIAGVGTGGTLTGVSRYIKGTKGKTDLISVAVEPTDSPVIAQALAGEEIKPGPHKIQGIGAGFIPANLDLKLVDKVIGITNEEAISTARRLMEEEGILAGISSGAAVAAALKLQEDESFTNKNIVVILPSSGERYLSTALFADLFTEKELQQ

Molecule: c1nc[nH]n1 [1,2,4-Triazole]
- CysK conversion [1]: +++ (key: +++: conversion greater than 70% after 30 min; ++: conversion greater than 40% after 30 min; +: conversion greater than 10% after 30 min; −: conversion less than 5% after 30 min)
- CysM conversion [2]: ++ (key: +++: conversion greater than 70% after 30 min; ++: conversion greater than 40% after 30 min; +: conversion greater than 10% after 30 min; −: conversion less than 5% after 30 min)

Molecule: O[C@@H](CS)[C@@H](O)CS (racemic) [Dithiothreithol]
- CysK conversion [1]: +++ (key: +++: conversion greater than 70% after 30 min; ++: conversion greater than 40% after 30 min; +: conversion greater than 10% after 30 min; −: conversion less than 5% after 30 min)
- CysM conversion [2]: +++ (key: +++: conversion greater than 70% after 30 min; ++: conversion greater than 40% after 30 min; +: conversion greater than 10% after 30 min; −: conversion less than 5% after 30 min)

Molecule: O=c1[nH]oc(=O)[nH]1 [1,2,4-Oxadiazolidine-3,5-dione]
- CysK conversion [1]: − (key: +++: conversion greater than 70% after 30 min; ++: conversion greater than 40% after 30 min; +: conversion greater than 10% after 30 min; −: conversion less than 5% after 30 min)
- CysM conversion [2]: + (key: +++: conversion greater than 70% after 30 min; ++: conversion greater than 40% after 30 min; +: conversion greater than 10% after 30 min; −: conversion less than 5% after 30 min)

Molecule: 1,2-Pyrazole
- CysK conversion [1]: ++ (key: +++: conversion greater than 70% after 30 min; ++: conversion greater than 40% after 30 min; +: conversion greater than 10% after 30 min; −: conversion less than 5% after 30 min)
- CysM conversion [2]: ++ (key: +++: conversion greater than 70% after 30 min; ++: conversion greater than 40% after 30 min; +: conversion greater than 10% after 30 min; −: conversion less than 5% after 30 min)

Molecule: OCCS [Mercaptoethanol]
- CysK conversion [1]: +++ (key: +++: conversion greater than 70% after 30 min; ++: conversion greater than 40% after 30 min; +: conversion greater than 10% after 30 min; −: conversion less than 5% after 30 min)
- CysM conversion [2]: +++ (key: +++: conversion greater than 70% after 30 min; ++: conversion greater than 40% after 30 min; +: conversion greater than 10% after 30 min; −: conversion less than 5% after 30 min)

Molecule: Sc1ccccc1 [Thiophenol]
- CysK conversion [1]: ++ (key: +++: conversion greater than 70% after 30 min; ++: conversion greater than 40% after 30 min; +: conversion greater than 10% after 30 min; −: conversion less than 5% after 30 min)
- CysM conversion [2]: +++ (key: +++: conversion greater than 70% after 30 min; ++: conversion greater than 40% after 30 min; +: conversion greater than 10% after 30 min; −: conversion less than 5% after 30 min)

Molecule: Nc1nc2nn[nH]c2c(=O)[nH]1 [8-Azaguanine]
- CysK conversion [1]: − (key: +++: conversion greater than 70% after 30 min; ++: conversion greater than 40% after 30 min; +: conversion greater than 10% after 30 min; −: conversion less than 5% after 30 min)
- CysM conversion [2]: + (key: +++: conversion greater than 70% after 30 min; ++: conversion greater than 40% after 30 min; +: conversion greater than 10% after 30 min; −: conversion less than 5% after 30 min)

Molecule: c1ccc2[nH]nnc2c1 [1,2,3-Benzotriazole]
- CysK conversion [1]: ++ (key: +++: conversion greater than 70% after 30 min; ++: conversion greater than 40% after 30 min; +: conversion greater than 10% after 30 min; −: conversion less than 5% after 30 min)
- CysM conversion [2]: + (key: +++: conversion greater than 70% after 30 min; ++: conversion greater than 40% after 30 min; +: conversion greater than 10% after 30 min; −: conversion less than 5% after 30 min)

Molecule: [SeH2] [Sodium selenide]
- CysK conversion [1]: +++ (key: +++: conversion greater than 70% after 30 min; ++: conversion greater than 40% after 30 min; +: conversion greater than 10% after 30 min; −: conversion less than 5% after 30 min)
- CysM conversion [2]: +++ (key: +++: conversion greater than 70% after 30 min; ++: conversion greater than 40% after 30 min; +: conversion greater than 10% after 30 min; −: conversion less than 5% after 30 min)

Molecule: Sc1nc[nH]n1 [3 Mercapto-1,2,4-triazole]
- CysK conversion [1]: + (key: +++: conversion greater than 70% after 30 min; ++: conversion greater than 40% after 30 min; +: conversion greater than 10% after 30 min; −: conversion less than 5% after 30 min)
- CysM conversion [2]: +++ (key: +++: conversion greater than 70% after 30 min; ++: conversion greater than 40% after 30 min; +: conversion greater than 10% after 30 min; −: conversion less than 5% after 30 min)

Molecule: O=C(O)c1ccc2[nH]nnc2c1 [5-Carboxy-1,2,3-benzotriazole]
- CysK conversion [1]: ++ (key: +++: conversion greater than 70% after 30 min; ++: conversion greater than 40% after 30 min; +: conversion greater than 10% after 30 min; −: conversion less than 5% after 30 min)
- CysM conversion [2]: + (key: +++: conversion greater than 70% after 30 min; ++: conversion greater than 40% after 30 min; +: conversion greater than 10% after 30 min; −: conversion less than 5% after 30 min)

Molecule: CC(=O)OC[C@H](N)C(=O)O [O-Acetyl-L-serine]
- stability toward isomerization ([3]; pH 4.0): stable
- rate of isomerization to N-acetyl-L-serine ([3]; pH 7.6): 1 %×min^−1

Molecule: [SeH]c1ccccc1 [Phenylselenol]
- CysK conversion [1]: ++ (key: +++: conversion greater than 70% after 30 min; ++: conversion greater than 40% after 30 min; +: conversion greater than 10% after 30 min; −: conversion less than 5% after 30 min)
- CysM conversion [2]: +++ (key: +++: conversion greater than 70% after 30 min; ++: conversion greater than 40% after 30 min; +: conversion greater than 10% after 30 min; −: conversion less than 5% after 30 min)

Molecule: c1nn[nH]n1 [1,2,3,4-Tetrazole]
- CysK conversion [1]: +++ (key: +++: conversion greater than 70% after 30 min; ++: conversion greater than 40% after 30 min; +: conversion greater than 10% after 30 min; −: conversion less than 5% after 30 min)
- CysM conversion [2]: ++ (key: +++: conversion greater than 70% after 30 min; ++: conversion greater than 40% after 30 min; +: conversion greater than 10% after 30 min; −: conversion less than 5% after 30 min)

Molecule: [N-]=[N+]=[N-].[Na+] [Sodium azide]
- CysK conversion [1]: +++ (key: +++: conversion greater than 70% after 30 min; ++: conversion greater than 40% after 30 min; +: conversion greater than 10% after 30 min; −: conversion less than 5% after 30 min)
- CysM conversion [2]: +++ (key: +++: conversion greater than 70% after 30 min; ++: conversion greater than 40% after 30 min; +: conversion greater than 10% after 30 min; −: conversion less than 5% after 30 min)

Molecule: Sc1nccs1 [2-Mercaptothiazole]
- CysK conversion [1]: ++ (key: +++: conversion greater than 70% after 30 min; ++: conversion greater than 40% after 30 min; +: conversion greater than 10% after 30 min; −: conversion less than 5% after 30 min)
- CysM conversion [2]: +++ (key: +++: conversion greater than 70% after 30 min; ++: conversion greater than 40% after 30 min; +: conversion greater than 10% after 30 min; −: conversion less than 5% after 30 min)

B1: CysM: Escherichia coli O-acetyl-L-serine sulfhydrylase with C-terminal StrepTagII, purified by affinity chromatography (protein, UniProt P16703 1-303, looked up)
Cysteine synthase B: MSTLEQTIGNTPLVKLQRMGPDNGSEVWLKLEGNNPAGSVKDRAALSMIVEAEKRGEIKPGDVLIEATSGNTGIALAMIAALKGYRMKLLMPDNMSQERRAAMRAYGAELILVTKEQGMEGARDLALEMANRGEGKLLDQFNNPDNPYAHYTTTGPEIWQQTGGRITHFVSSMGTTGTITGVSRFMREQSKPVTIVGLQPEEGSSIPGIRRWPTEYLPGIFNASLVDEVLDIHQRDAENTMRELAVREGIFCGVSSGGAVAGALRVAKANPDAVVVAIICDRGDRYLSTGVFGEEHFSQGAGI
- specific activity Acys (formation of cysteine using sulfide) [4]: 199 units/mg
- specific activity AS-cys (formation of S-sulfocysteine using thiosulfate) ([4]; 10 mM sodium thiosulfate): 145 units/mg

B2: CysK: Escherichia coli O-acetyl-L-serine sulfhydrylase with C-terminal StrepTagII, purified by affinity chromatography (protein, UniProt P0ABK5 2-323, looked up)
Cysteine synthase A: SKIFEDNSLTIGHTPLVRLNRIGNGRILAKVESRNPSFSVKCRIGANMIWDAEKRGVLKPGVELVEPTSGNTGIALAYVAAARGYKLTLTMPETMSIERRKLLKALGANLVLTEGAKGMKGAIQKAEEIVASNPEKYLLLQQFSNPANPEIHEKTTGPEIWEDTDGQVDVFIAGVGTGGTLTGVSRYIKGTKGKTDLISVAVEPTDSPVIAQALAGEEIKPGPHKIQGIGAGFIPANLDLKLVDKVIGITNEEAISTARRLMEEEGILAGISSGAAVAAALKLQEDESFTNKNIVVILPSSGERYLSTALFADLFTEKELQQ
- specific activity Acys (formation of cysteine using sulfide) [4]: 140 units/mg
